From publication PMC7785020, “A unique hormonal recognition feature of the human glucagon-like peptide-2 receptor” (Cell Research, 2020)
Numbering of substitutions follows the chain as printed.

Experiments:
Set-up in all cases: WT (1–553); expressed in transfected cells
[1] = biological target: T1, GLP-2R H268^3.37A (Homo sapiens, UniProt O95838, H268A); test: radioligand competition binding, H268^3.37A; settings: COS-7, H268^3.37A; [^125I]GLP-2(1–33, M10Y) 10–15 pM, 4 h, 4 °C; mean ± SEM, n ≥ 3 in duplicate
T1 sequence (O95838 1-553 H268A): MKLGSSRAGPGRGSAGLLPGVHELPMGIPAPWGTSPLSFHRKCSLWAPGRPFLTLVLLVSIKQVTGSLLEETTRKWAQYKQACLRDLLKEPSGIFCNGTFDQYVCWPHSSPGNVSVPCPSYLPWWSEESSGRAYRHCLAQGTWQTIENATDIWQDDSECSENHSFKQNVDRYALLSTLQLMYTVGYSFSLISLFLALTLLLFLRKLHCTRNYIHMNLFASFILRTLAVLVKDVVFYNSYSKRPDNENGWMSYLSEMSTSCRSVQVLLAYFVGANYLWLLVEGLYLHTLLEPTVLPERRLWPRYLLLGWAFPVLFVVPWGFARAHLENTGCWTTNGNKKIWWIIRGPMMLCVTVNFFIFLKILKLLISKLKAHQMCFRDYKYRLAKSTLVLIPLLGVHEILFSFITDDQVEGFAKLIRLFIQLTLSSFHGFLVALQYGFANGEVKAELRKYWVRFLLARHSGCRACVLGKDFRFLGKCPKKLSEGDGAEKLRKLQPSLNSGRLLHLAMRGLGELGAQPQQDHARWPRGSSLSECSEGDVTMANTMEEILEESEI
Procedure: (§1) A stepwise oxidation reaction was performed by addition of 6 aliquots of 5 µL ChloramineT (30 µL/mL) with a 1-min interval during constant stirring. The reaction was terminated by the addition of 400 µL phase A (0.1% trifluoracetic acid) before being fractionated into 1 mL volume by reverse-phase high-performance liquid chromatography (RP-HPLC, Waters 600 SimiPrep system) on a C18 column. The iodinated protein was […] by increasing concentrations of phase B (Acetonitrile + 0.1% TFA) and tested for competitive binding ability.
(§2) One day before transfection, the COS-7 cells were seeded in 75 cm^2 culture flasks (3 million cells/flask) in DMEM, containing 3.9 g/L NaHCO3 and supplemented with 10% FBS, 1% L-glutamine, 180 units/mL penicillin and 45 µg/mL streptomycin. After an overnight culture at 37 °C, 10% CO2 and 95% air humidity, the cells were transiently transfected with different GLP-2R constructs or pcDNA3.1 vector as previously described.[52] Following 24-h incubation, the cells were transferred to Costa® microtiter plates (150,000 cells/well, PerkinElmer) to achieve a 5%–10% specific binding. […] The cells were then washed twice in binding buffer (4 °C), lysed and counted for radioactivity using a Wallac Gamma Counter (PerkinElmer).

[2] = biological target: T2, GLP-2R N247^ECL1A (Homo sapiens, UniProt O95838, N247A); test: radioligand competition binding, N247^ECL1A; settings: COS-7, N247^ECL1A; [^125I]GLP-2(1–33, M10Y) 10–15 pM, 4 h, 4 °C; mean ± SEM, n ≥ 3 in duplicate
T2 sequence (O95838 1-553 N247A): T1 sequence (O95838 1-553 H268A) with N247A, A268H
Procedure: as §1, §2

[3] = biological target: T3, GLP-2R W340^5.36A (Homo sapiens, UniProt O95838, W340A); test: radioligand competition binding, W340^5.36A; settings: COS-7, W340^5.36A; [^125I]GLP-2(1–33, M10Y) 10–15 pM, 4 h, 4 °C; mean ± SEM, n ≥ 3 in duplicate
T3 sequence (O95838 1-553 W340A): T1 sequence (O95838 1-553 H268A) with A268H, W340A
Procedure: as §1, §2

Row | SMILES | % Binding of WT [1] | % Binding of WT [2] | % Binding of WT [3]
1 | CC[C@H](C)[C@H](NC(=O)[C@H](Cc1ccccc1)NC(=O)[C@H](CC(=O)O)NC(=O)[C@H](CCCNC(=N)N)NC(=O)[C@H](C)NC(=O)[C@H](C)NC(=O)[C@H](CC(C)C)NC(=O)[C@H](CC(N)=O)NC(=O)[C@H](CC(=O)O)NC(=O)[C@H](CC(C)C)NC(=O)[C@@H](NC(=O)[C@@H](NC(=O)[C@H](CC(N)=O)NC(=O)[C@H](CCSC)NC(=O)[C@H](CCC(=O)O)NC(=O)[C@H](CC(=O)O)NC(=O)[C@H](CO)NC(=O)[C@H](Cc1ccccc1)NC(=O)[C@H](CO)NC(=O)CNC(=O)[C@H](CC(=O)O)NC(=O)[C@H](C)NC(=O)[C@@H](N)Cc1c[nH]cn1)[C@@H](C)O)[C@@H](C)CC)C(=O)N[C@@H](CC(N)=O)C(=O)N[C@@H](Cc1c[nH]c2ccccc12)C(=O)N[C@@H](CC(C)C)C(=O)N[C@H](C(=O)N[C@@H](CCC(N)=O)C(=O)N[C@H](C(=O)N[C@@H](CCCCN)C(=O)N[C@H](C(=O)N[C@H](C(=O)N[C@@H](CC(=O)O)C(=O)O)[C@@H](C)O)[C@@H](C)CC)[C@@H](C)O)[C@@H](C)CC [Human GLP-2 (1–33)] | 2.1 ± 0.8 % | 130.7 ± 4.5 % | 7.3 ± 0.6 %
2 | CC[C@H](C)[C@H](NC(=O)[C@H](Cc1ccccc1)NC(=O)[C@H](CC(=O)O)NC(=O)[C@H](CCCNC(=N)N)NC(=O)[C@H](C)NC(=O)[C@H](C)NC(=O)[C@H](CC(C)C)NC(=O)[C@H](CC(N)=O)NC(=O)[C@H](CC(=O)O)NC(=O)[C@H](CC(C)C)NC(=O)[C@@H](NC(=O)[C@@H](NC(=O)[C@H](CC(N)=O)NC(=O)[C@H](CCSC)NC(=O)[C@H](CCC(=O)O)NC(=O)[C@H](CC(=O)O)NC(=O)[C@H](CO)NC(=O)[C@H](Cc1ccccc1)NC(=O)[C@H](CO)NC(=O)CNC(=O)[C@H](CC(=O)O)NC(=O)CNC(=O)[C@@H](N)Cc1c[nH]cn1)[C@@H](C)O)[C@@H](C)CC)C(=O)N[C@@H](CC(N)=O)C(=O)N[C@@H](Cc1c[nH]c2ccccc12)C(=O)N[C@@H](CC(C)C)C(=O)N[C@H](C(=O)N[C@@H](CCC(N)=O)C(=O)N[C@H](C(=O)N[C@@H](CCCCN)C(=O)N[C@H](C(=O)N[C@H](C(=O)N[C@@H](CC(=O)O)C(=O)O)[C@@H](C)O)[C@@H](C)CC)[C@@H](C)O)[C@@H](C)CC [Teduglutide] | 0.7 ± 1.8 % | 135.2 ± 4.4 % | 8.6 ± 1.8 %
